# Results published in patent publication US10722519B2, “Aerosol fluoroquinolone formulations for improved pharmacokinetics” (priority 2008, dated 2020).
# Read-outs that look alike come from different tables or passages of the source.
# Experiments:
# [1] = in vivo; conditions: male, Sprague-Dawley, rat, in vivo, 10 mg/kg
# Protocol: This example relates to aerosol and intravenous administration of fluoroquinolones in saline. A rat pharmacokinetic model was used to compare intravenous and pulmonary administration of fluoroquinolones. […] Doses were administered via the lateral tail vein, or to the lung just above the tracheal bifurcation using a micro-spray aerosol device (Penn Century, Philadelphia, Pa.).
# Approximately 0.3 ml blood samples were taken from 2-6 rats at each timepoint via an indwelling jugular vein cannula, and collected in lithium heparin tubes. Bronchial alveolar lavage (BAL) and lung tissue were collected following euthanasia. […] Sample concentrations were determined against a standard curve.
# [2] = clinical
# Protocol: (§1) This analysis compares the appearance and elimination of drug following aerosol and intravenous doses to determine the amount of drug remaining in the lung (absorption compartment) over time. To estimate concentrations of drug in lung, amounts were divided by estimates of the epithelial lung fluid (ELF) volume (25 ml) for each subject. Non-compartmental pharmacokinetic analysis was subsequently applied to these projected concentrations of drug in the lung to determine AUCs.
# [3] = Aerosol and IV levofloxacin in saline in normal healthy volunteers and CF subjects (serum, sputum, deconvolution); conditions: for Mean projected Cmax in the ELF: CF patients, ELF volume 25 ml; for AUC / Cmax / half-life / clearance: human, in vivo; for clearance: Total levofloxacin clearance, serum
# Protocol: Safety, tolerability, and pharmacokinetics (serum, sputum, and urinary excretion) data were collected after each dose.
# as §1, with “A weight of 1/y-observed was applied in the regression. Goodness of fit was assessed by the minimized objective function and inspection of weighted residual plots. […] Briefly, this” for “This”, “Noncompartmental” for “Non-compartmental”, “values for AUC.” for “AUCs.”
# The area under the sputum concentration vs. time curve was estimated using the linear trapezoidal rule.
# [4] = tested on: P. aeruginosa ATCC 27853; experiment: MIC, broth microdilution; format: cell-based; conditions: Pseudomonas aeruginosa, ATCC27853, P. aeruginosa ATCC27853
# Protocol: (§2) Bacterial strains MIC testing: P. aeruginosa ATCC 27853 and NH57388A were used in these studies. MICs were determined by a broth microdilution assay according to CLSI reference methods (Methods for dilution of antimicrobial susceptibility test for bacteria that grow aerobically. Seventh Edition: Clinical and Laboratory Standards Institute (2006) M&-A7, incorporated by reference in its entirety). Assays were performed in a final volume of 100 μl. The bacterial suspensions were adjusted to yield a cell density of 5×10^5 CFU/ml. Antibiotics were prepared at a concentration equivalent to twofold the highest desired final concentration in culture medium and were then diluted directly into 96-well microtiter plates. Microtiter plates were incubated for 24 h at 35° C. and were read by using a microtiter plate reader (Molecular Devices) at 600 nm as well as by visual observation by using a microtiter plate reading mirror.
# [5] = tested on: P. aeruginosa NH57388A; experiment: MIC, broth microdilution; format: cell-based; conditions: Pseudomonas aeruginosa, NH57388A, P. aeruginosa NIH57388A CF; read-out: MIC
# Protocol: as §2
# [6] = tested on: P. aeruginosa NH57388A; experiment: Chronic mouse lung infection model; format: in vivo; conditions: mice, twice daily for 72 h
# Protocol: Bacterial cells were harvested by centrifugation (23,000×g, 30 min, at 4° C.) and resuspended in 3-6 ml of MHB. The supernatant was collected and placed in 80° C. water-bath for 30 min. […] The precipitated alginate was collected with a sterile bacterial loop and washed several times in sterile saline. The purified alginate was then resuspended in 10 ml of sterile saline and stirred vigorously to form a homogeneous suspension. […] The bacterial suspension was diluted (1:10) in the alginate suspension to yield about 10^8 CFU/ml. […] On day 4, the mice were infected using a curved bead-tipped oral gavage attached to a 1 ml syringe while under isoflurane anesthesia.
# [7] = rat, 10 mg/kg
# [8] = in vivo; conditions: Sprague-Dawley, rat, 10 mg/kg
# [9] = in vivo; conditions: Sprague-Dawley, rat, 10 mg/kg; remark: listed apart in the source
# [10] = clinical; conditions: human, in vivo
# [11] = tested on: P. aeruginosa; conditions: simulated ELF
# [12] = serum, 5 minute IV infusion 50 mg, single healthy volunteer
structure (smiles),measurement,setting,value
"C[C@H]1COc2c(N3CCN(C)CC3)c(F)cc3c(=O)c(C(=O)O)cn1c23 [Levofloxacin, levofloxacin]","F, % from Lung vs IV",[1],97%
same,MAT,[1],0 h
same,AUC,[1]; inhaled or intranasal,3000 ng·h/mL
same,AUC(0-inf),[1]; inhaled or intranasal,3700 ng·h/mL
same,MRT,[1]; inhaled or intranasal,42 min
same,half-life,[1]; inhaled or intranasal,30 min
same,AUC,[1]; iv,1600 ng·h/mL
same,AUC(0-inf),[1]; iv,3800 ng·h/mL
same,MRT,[1]; iv,42 min
same,half-life,[1]; iv,30 min
same,Vd,"[2]; human, in vivo, iv",135 L
same,clearance,"[2]; human, in vivo, iv",266 mL/min
same,A,[2]; [12],2.05 mg/L
same,B,[2]; [12],0.30 mg/L
same,V2,[2]; [12],114.03 L
same,Mean projected Cmax in the ELF,[3]; high dose (RDD 40 mg),> 1000 µg/mL
same,Mean projected Cmax in the ELF,[3]; low dose (RDD 20 mg),exceeded 500 μg/ml
same,time for which 50% of the lung dose remains in the lung,"[3]; CF subjects, aerosol in saline, serum deconvolution",at least 0.5 hours
same,peak sputum concentrations higher than 750 mg oral dose,[3]; aerosol doses as low as 20 mg,10 fold
same,AUC,[3]; 20 mg,67100 ng·h/mL
same,Cmax,[3]; 20 mg,86.2 µg/mL
same,half-life,[3]; 20 mg,54 min
same,AUC,[3]; 40 mg,171000 ng·h/mL
same,Cmax,[3]; 40 mg,212 µg/mL
same,half-life,[3]; 40 mg,78 min
same,clearance,"[3]; 50 mg, CF subjects",235 mL/min
same,clearance,"[3]; 50 mg, NHV subjects",287 mL/min
same,AUC,"[3]; iv, 50 mg",2500 ng·h/mL
same,Cmax,"[3]; iv, 50 mg",0.8 µg/mL
same,AUC,"[3]; po, 750 mg",93400 ng·h/mL
same,Cmax,"[3]; po, 750 mg",8.7 µg/mL
same,MIC,[4],1 µg/mL
same,MIC,[5],2 µg/mL
same,log increase in bacterial counts,[6]; intraperitoneal 15 mg/kg in saline,0.83 log
same,log increase in bacterial counts,[6]; intraperitoneal 30 mg/kg in saline,0.32 log
same,log increase in bacterial counts,[6]; intraperitoneal 60 mg/kg in saline,0.15 log
same,Plasma MAT,"[7]; Sprague-Dawley, in vivo",0.01 h
same,Plasma CL/F,"[7]; IV, mean (+/- SD)",2.81 (±0.54) L/hr/kg
same,CL/F,[8]; inhaled or intranasal,47.2 mL/min/kg
same,Cmax,[8]; inhaled or intranasal,6.01 µg/mL
same,MRT,[8]; inhaled or intranasal,42.6 min
same,bioavailability,[8]; inhaled or intranasal,97.4%
same,half-life,[8]; inhaled or intranasal,31.2 min
same,Cmax,[8]; iv,5.54 µg/mL
same,MRT,[8]; iv,42 min
same,half-life,[8]; iv,29.4 min
same,MRT,[9]; inhaled or intranasal,42 min
same,half-life,[9]; inhaled or intranasal,30 min
same,MRT,[9]; iv,42 min
same,half-life,[9]; iv,30 min
same,AUC(0-inf),"[10]; iv, 50 mg, Serum AUC(0-inf)",3910 ng·h/mL
same,Cmax,"[10]; iv, 50 mg, Serum Cmax",2.55 µg/mL
same,half-life,"[10]; iv, 50 mg, Serum t1/2, IV 50 mg",353 min
same,AUC(0-inf),"[10]; iv, 50 mg, Sputum AUC(0-inf)",5700 ng·h/mL
same,Cmax,"[10]; iv, 50 mg, Sputum Cmax",1.05 µg/mL
same,half-life,"[10]; po, 750 mg",402 min
same,AUC(0-inf),"[10]; po, 750 mg, Serum AUC(0-inf)",76600 ng·h/mL
same,Cmax,"[10]; po, 750 mg, Serum Cmax",7.3 µg/mL
same,half-life,"[10]; po, 750 mg, Serum t1/2, Oral 750 mg, CF patients",456 min
same,AUC(0-inf),"[10]; po, 750 mg, Sputum AUC(0-inf)",93400 ng·h/mL
same,Cmax,"[10]; po, 750 mg, Sputum Cmax",8.7 µg/mL
same,24 h AUC,[11]; 20 mg BID,700 mg·h/L
same,Cmax,[11]; 20 mg BID,500 mg/L
same,24 h AUC,[11]; 40 mg BID,"1,400 h · mg/L"
same,Cmax,[11]; 40 mg BID,"1,000 mg/L"
same,24 h AUC,[11]; 80 mg BID,"2,800 h · mg/L"
same,Cmax,[11]; 80 mg BID,"2,000 mg/L"
same,24 h AUC,[11]; 120 mg BID,"4,200 h · mg/L"
same,Cmax,[11]; 120 mg BID,"3,000 mg/L"
